Where two headings read alike, the source gives them in different places.
Columns and labels:
[1] = Pharmacokinetic study in ICR mice; assay type: in vivo; settings: for AUC / Cmax / clearance / half-life: male, mouse, supernatant of centrifuged blood
Description: (§1) Experimental process: 12 male ICR mice were selected, 6 of the […] were orally administrated (3 of them were administered with RBN-2397, and the remaining 3 were administered with I-A-1, at a dose of 10 mg/kg), 6 of the rats were administered intravenously (3 of them were administered with RBN-2397, and the remaining 3 were administered with I-A-1, at a dose of 1 mg/kg), blood samples were collected at 0 min, 2 min, 5 min, 10 min, 20 min, 30 min, 60 min, 2 h, 4 h, 6 h, and 8 h, respectively, and then centrifuged (at 3000 rpm for 5 min), a supernatant was collected and analyzed by LC-MS-MS, and results were analyzed by using WinNonlin Software.

[2] = Pharmacokinetic study in SD rats; assay type: in vivo; settings: for AUC / Cmax / clearance / half-life: male, rat, supernatant of centrifuged blood
Description: as §1, with “SD rats” for “ICR mice”

NCI-H1373 cells = settings: NCI-H1373 xenograft; dose of >30 mg/kg orally once a day; cited from earlier work
[3] = in words, background; cited from earlier work
PARP7 = biological target: T1, PARP7 (Homo sapiens, UniProt Q7Z3E1); experiment: Inhibitory activity of compounds on PARP7 enzyme (PARP7 Chemiluminescent Assay Kit); assay type: biochemical
T1 construct: purchased BPS Bioscience
T1 sequence (Q7Z3E1 1-657): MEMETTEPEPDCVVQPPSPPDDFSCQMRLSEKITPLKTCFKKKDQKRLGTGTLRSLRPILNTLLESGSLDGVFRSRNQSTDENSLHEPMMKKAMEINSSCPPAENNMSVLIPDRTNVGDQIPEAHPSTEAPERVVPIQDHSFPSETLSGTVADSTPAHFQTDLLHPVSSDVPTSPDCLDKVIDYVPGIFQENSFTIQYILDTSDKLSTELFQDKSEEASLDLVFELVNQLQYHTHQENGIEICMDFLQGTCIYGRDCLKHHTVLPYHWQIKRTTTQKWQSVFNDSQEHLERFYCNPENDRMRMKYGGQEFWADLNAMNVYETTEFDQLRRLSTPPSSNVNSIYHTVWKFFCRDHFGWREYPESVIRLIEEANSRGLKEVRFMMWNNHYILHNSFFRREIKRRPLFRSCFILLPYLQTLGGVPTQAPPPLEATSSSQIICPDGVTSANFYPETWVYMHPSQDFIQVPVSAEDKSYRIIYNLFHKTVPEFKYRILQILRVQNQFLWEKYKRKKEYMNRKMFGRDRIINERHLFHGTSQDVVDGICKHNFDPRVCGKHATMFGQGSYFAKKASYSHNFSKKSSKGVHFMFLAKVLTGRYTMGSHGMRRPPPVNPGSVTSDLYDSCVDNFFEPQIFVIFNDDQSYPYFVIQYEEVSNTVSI
Description: Experimental materials: PARP7 Chemiluminescent Assay Kit, BPS Bioscience; DMSO, China National Pharmaceutical Group, Nivo, PerkinElmer.
(1) Preparation of Solutions and Buffers:
Preparation of 10×PBS: 720 mg of KH2PO4, 45 g of NaCl and 5.311 g of Na2HPO4·12H2O were weighed respectively and dissolved in 500 mL of deionized water, a system pH value was adjusted to 7.4, sterilization was performed at 121° C. for 30 min, and the system after cooling was placed at 4° C. for later use.
Preparation of 1×PBS: 10×PBS was diluted 10 times with deionized water, that is, 9 parts of deionized water was added to 1 part of 10×PBS for dilution.
Preparation of wash buffer: 1×PBS contained 0.05% Tween-20.
Preparation of 1×PARP buffer (prepared freshly before use): 10×PARP buffer was diluted 10 times with deionized water and placed on ice for later use.
(2) Preparation of Compound Working Solution Concentration:
According to test requirements, a compound to be tested is diluted with 100% DMSO to a desired concentration, and then diluted 10 times with 1×PARP buffer to prepare a 10× compound working solution.
a. 5× histone mixture was thawed on ice one day prior to the experiment;
b. preparation of 1× histone mixture: 1× histone mixture was prepared through the 5× histone mixture by using 1×PBS; and 25 μL of 1× histone mixture was taken from each well and transferred into a test well plate and incubated overnight at 4° C.;
c. 100 μL of Blocking buffer was taken from each well and added to the test well plate and incubated for 90 min at 25° C.;
d. after the incubation was completed, the liquid in the test well plate was spin-dried, and the test well plate was washed repeatedly for 3 times;
e. 2.5 μL of the compound working solution was taken from each well and added to the test well plate according to an experimental layout diagram; and 1×PARP buffer with a corresponding volume of 10% DMSO was added to positive control wells (Positive Control), and 1×PARP buffer of a corresponding volume was added to blank control wells (Blank);
f. after the enzyme was completely dissolved, an enzyme stock solution was diluted with 1×PARP buffer to 6 ng/μL;
g. 10 μL of enzyme solution was taken from each well and added to the test well plate, the blank control wells were added with the corresponding volume of 1×PARP buffer, and in which case, the enzyme amount was 60 ng per well. Note: this step needs to be performed on ice;
h. 12.5 μL of master mixture was added to each well of the test well plate (12.5 μL master mixture included 1.25 μL of 10×PARP buffer, 1.25 μL of Opti-PARP 10× Assay mixture and 10 μL of water); the test well plate was sealed and incubated at 25° C. for 60 min;
i. after the incubation was completed, the liquid in the test well plate was spin-dried, and the test well plate was washed repeatedly for 3 times;
j. Streptavidin-HRP in a kit was diluted 50 times with a Blocking buffer, 25 μL was taken from each well and added to the test well plate, and incubated at 25° C. for 30 min;
k. after the incubation was completed, the liquid in the test well plate was spin-dried, and the test well plate was washed repeatedly for 3 times;
l. ELISA ECL Substrate A and ELISA ECL Substrate B in the kit was mixed to obtain a mixed solution according to a ratio of 1:1, 50 μL of the mixed solution was added to each well of the test well plate, Nivo was used to perform Luminescence detection immediately, and a luminous value (RLU) was read; and
m. calculation of an enzyme rate: Enzyme Activity=(RLU(Sample)−RLU(Blank))/(RLU(Pos.Ctrl)−RLU(Blank))×100%; and enzyme inhibition rate=1−% Enzyme Activity, and specific results were shown in Table 1 below.

CT26 cells = experiment: In vivo pharmacodynamic study, CT26 subcutaneous tumors in BALB/c mice
Excerpt: BALB/c mice were subcutaneously inoculated with CT26 cells in the right abdominal skin to develop tumors. Four days after tumor inoculation, 24 mice having a tumor size ranging from 55-75 mm^3 (with an average tumor size of 63 mm^3) were selected and randomly divided into 4 groups based on their tumor volumes, with 6 mice in each group. Drug administration was started on the day following random grouping (the day of random grouping was identified as Day 0), a carrier (0.5% of methyl cellulose+0.2% of Tween 80), Compound RBN-2397 (500 mg/kg, once a day, intragastric administration for 14 consecutive days), Compound I-A-1 (100 mg/kg, once a day, intragastric administration for 14 consecutive days), Compound I-A-1 (50 mg/kg, twice a day, intragastric administration for 14 consecutive days) were administered respectively, and the tumor size was measured three times per week during an administration period.

AUC ([1]; IV 1 mg/kg) [ng·h/mL]	Cmax ([1]; IV 1 mg/kg) [ng/mL]	clearance ([1]; IV 1 mg/kg) [mL/min/kg]	half-life ([1]; IV 1 mg/kg) [h]	AUC ([1]; PO 10 mg/kg) [ng·h/mL]	Cmax ([1]; PO 10 mg/kg) [ng/mL]	half-life ([1]; PO 10 mg/kg) [h]	CL ([2]; PO 10 mg/kg) [mL/min/kg]	F ([2]; PO 10 mg/kg) [%]	AUC ([2]; IV 1 mg/kg) [ng·h/mL]	Cmax ([2]; IV 1 mg/kg) [ng/mL]	clearance ([2]; IV 1 mg/kg) [mL/min/kg]	half-life ([2]; IV 1 mg/kg) [h]	AUC ([2]; PO 10 mg/kg) [ng·h/mL]	Cmax ([2]; PO 10 mg/kg) [ng/mL]	half-life ([2]; PO 10 mg/kg) [h]	SMILES	also measured
256	757	67	0.15	656	1310	0.9	381.342	12.4	333	836	50.6	0.28	415	295	0.75	C[C@@H](COCCC(=O)N1CCN(c2ncc(C(F)(F)F)cn2)CC1)Nc1cn[nH]c(=O)c1C(F)(F)F [RBN-2397, reference compound]	F ([1]; PO 10 mg/kg): 25.67%; anti-tumor effects (NCI-H1373 cells): significant anti-tumor effects; drug exposure and oral bioavailability in vivo [3]: low; in vivo clearance rate [3]: high
591	419	29	1.44	5660	2300	1.74	62.9522	46.8	548	333	30.4	1.72	2560	564	2.57	C[C@@H](CN1CC(C(=O)N2CCN(c3ncc(C(F)(F)F)cn3)CC2)C1)Nc1cn[nH]c(=O)c1C(F)(F)F [I-A-1, (S)-4-(trifluoromethyl)-5-((1-(3-(4-(5-(trifluoromethyl)pyrimidin-2-yl)piperazine-1-carbonyl)azetidin-1-yl)propan-2-yl)amino)pyridazin-3(2H)-one]	F ([1]; PO 10 mg/kg, 10 mg/kg): 95.80%; pharmacokinetic properties ([1]; in words): good pharmacokinetic properties; IC50 (PARP7; chemiluminescence, symbols defined as IC50 classes, read-out: 100 nM Inhibition Rate): < 100 nM; IC50 (PARP7; summary of Table 1, read-out: enzyme inhibition IC50 values): < 100 nM; pharmacokinetic properties ([2]; in words): good pharmacokinetic properties; anti-tumor activity (CT26 cells; 100 mg/kg once a day or 50 mg/kg twice a day, intragastric, 14 days, FIG. 2): significant anti-tumor activity; anti-tumor effect compared with the positive drug RBN-2397 (CT26 cells; I-A-1 100 mg/kg/day vs RBN-2397 500 mg/kg once a day): better anti-tumor effect at a lower dose

Reference: patent US20250346579A1, “PYRIDAZINONE COMPOUND AND PREPARATION METHOD THEREFOR, PHARMACEUTICAL COMPOSITION THEREOF, AND APPLICATION THEREOF” (CHINA PHARMACEUTICAL UNIVERSITY, priority 2021, published 2025)
